According to article PMC6120666 (The EMBO Journal, 2018):

Assays:
Assay in all cases: Drug affinity chromatography with c-ponatinib and LC-MS/MS (ponatinib interactome)
Assay type in all cases: binding
[1] = target: T1, proteins of U2OS cell lysate (Homo sapiens, UniProt P52907)
T1 construct: Proteins enriched by c-ponatinib from U2OS cell lysate; endogenous in cells; host or cells: U2OS cell lysate
Description: (§1) Drug affinity chromatography
(§2) U2OS cells were grown until approximately 80% confluent before being pelleted and washed with PBS. Cell pellets were subsequently lysed in buffer A (50 mM Tris pH 7.5, 0.8% v/v NP-40, 5% v/v glycerol, 1.5 mM MgCl2, 100 mM NaCl, 25 mM NaF, 1 mM Na3VO4, 1 mM PMSF, 1mM DTT, 10 μg/mL TLCK, 1 μg/ml Leupeptin, 1 μg/ml Aprotinin, 1 μg/ml soy bean trypsin) and lysates prepared […]
(§3) concentration was determined and lysates stored at -80 °C.
(§4) Briefly, 100 μl of bead slurry (50% in isopropanol) were used for each pulldown experiment. Beads were washed with DMSO (3 × 500 μl), and resuspended in DMSO (50 μl), to which the amine (0.025 μmol) and triethylamine (0.75 μl) were added. The beads were incubated at room temperature for 16 h, and depletion of free amine from the supernatant was determined by LC-MS analysis. Ethanolamine (2.5 μl) was then added to block any unreacted NHS sites, and the beads incubated for a further 16 h. Derivatized beads were then washed with DMSO (3 × 500 μl), buffer A (3 × 1 ml), and incubated with cell lysates (2 mg of protein per pulldown, at 6 […]
(§5) Beads and treated lysates were incubated for 2 h at 4 °C before washing with buffer A (5 ml), Buffer B (50 mM HEPES pH 7.5, 100 mM NaCl, 500 μM EDTA, 2.5 ml), and eluted with formic acid (100 mM, 250 μl). Samples were neutralized with triethylammoniumbicarbonate (TEAB, 1M, 62.5 μl) and stored at -20 °C until preparation for proteomic analysis.
(§6) Samples were reduced with DTT (10 mM final concentration) for 30 min at room temperature, alkylated with iodoacetamide (55 mM final concentration) for 30 min at room temperature, diluted to 300 μl with TEAB, and incubated with trypsin (6 μl, 0.2 mg/ml) overnight at 37 °C. The digests were desalted using SEPAC lite columns (Waters), eluted with 69 % v/v MeCN, 0.1 % v/v FA in H2O (1 ml) and dried in vacuo. Dried peptides were stored at -20 °C before resuspension in 2 % v/v MeCN, 1 % v/v FA in H2O (20 μl) for LC-MS/MS analysis.
(§7) LC-MS/MS data acquisition
(§8) Mass spectrometry data was acquired at the Discovery Proteomics Facility (University of Oxford).
(§9) Digested samples were analyzed by nano-UPLC–MS/MS using a Dionex Ultimate 3000 nano UPLC with EASY spray column (75 μm × 500 mm, 2 μm particle size, Thermo Fisher Scientific) with a 60 min gradient of 0.1 % (v/v) formic acid in 5 % (v/v) DMSO to 0.1 % (v/v) formic acid with 35 % (v/v) acetonitrile in 5 % (v/v) DMSO at a flow rate of approximately 250 nl min−1 (600 bar per 40 °C column temperature). Mass spectrometry data was acquired either with an Orbitrap Q Exactive (Survey scans acquired at a resolution of 70,000 @ 200m/z and the 15 most abundant precursors were selected for HCD fragmentation), or an Orbitrap Q Exactive High Field (HF) instrument (survey scans were […]

[2] = target: T2, proteins of U2OS cell lysate (Homo sapiens, UniProt Q15393)
T2 construct: Proteins enriched by c-ponatinib from U2OS cell lysate; endogenous in cells; host or cells: U2OS cell lysate
Description: as §1, §2, §3, §4, §5, §6, §7, §8, §9

[3] = target: T3, proteins of U2OS cell lysate (Homo sapiens, UniProt Q9Y262)
T3 construct: Proteins enriched by c-ponatinib from U2OS cell lysate; endogenous in cells; host or cells: U2OS cell lysate
Description: as §1, §2, §3, §4, §5, §6, §7, §8, §9

[4] = system: proteins of U2OS cell lysate
Description: as §1, §2, §3, §4, §5, §6, §7, §8, §9

[5] = target: T4, proteins of U2OS cell lysate (Homo sapiens, UniProt Q13247)
T4 construct: Proteins enriched by c-ponatinib from U2OS cell lysate; endogenous in cells; host or cells: U2OS cell lysate
Description: as §1, §2, §3, §4, §5, §6, §7, §8, §9

[6] = target: T5, proteins of U2OS cell lysate (Homo sapiens, UniProt O75533)
T5 construct: Proteins enriched by c-ponatinib from U2OS cell lysate; endogenous in cells; host or cells: U2OS cell lysate
Description: as §1, §2, §3, §4, §5, §6, §7, §8, §9

[7] = target: T6, proteins of U2OS cell lysate (Homo sapiens, UniProt P62263)
T6 construct: Proteins enriched by c-ponatinib from U2OS cell lysate; endogenous in cells; host or cells: U2OS cell lysate
Description: as §1, §2, §3, §4, §5, §6, §7, §8, §9

[8] = target: T7, proteins of U2OS cell lysate (Homo sapiens, UniProt P17987)
T7 construct: Proteins enriched by c-ponatinib from U2OS cell lysate; endogenous in cells; host or cells: U2OS cell lysate
Description: as §1, §2, §3, §4, §5, §6, §7, §8, §9

[9] = target: T8, proteins of U2OS cell lysate (Homo sapiens, UniProt Q06830)
T8 construct: Proteins enriched by c-ponatinib from U2OS cell lysate; endogenous in cells; host or cells: U2OS cell lysate
Description: as §1, §2, §3, §4, §5, §6, §7, §8, §9

[10] = target: T9, proteins of U2OS cell lysate (Homo sapiens, UniProt Q9UBM7)
T9 construct: Proteins enriched by c-ponatinib from U2OS cell lysate; endogenous in cells; host or cells: U2OS cell lysate
Description: as §1, §2, §3, §4, §5, §6, §7, §8, §9

[11] = target: T10, proteins of U2OS cell lysate (Homo sapiens, UniProt P63244)
T10 construct: Proteins enriched by c-ponatinib from U2OS cell lysate; endogenous in cells; host or cells: U2OS cell lysate
Description: as §1, §2, §3, §4, §5, §6, §7, §8, §9

[12] = target: T11, proteins of U2OS cell lysate (Homo sapiens, UniProt P13073)
T11 construct: Proteins enriched by c-ponatinib from U2OS cell lysate; endogenous in cells; host or cells: U2OS cell lysate
Description: as §1, §2, §3, §4, §5, §6, §7, §8, §9

[13] = target: T12, proteins of U2OS cell lysate (Homo sapiens, UniProt O43175)
T12 construct: Proteins enriched by c-ponatinib from U2OS cell lysate; endogenous in cells; host or cells: U2OS cell lysate
Description: as §1, §2, §3, §4, §5, §6, §7, §8, §9

[14] = target: T13, proteins of U2OS cell lysate (Homo sapiens, UniProt P19338)
T13 construct: Proteins enriched by c-ponatinib from U2OS cell lysate; endogenous in cells; host or cells: U2OS cell lysate
Description: as §1, §2, §3, §4, §5, §6, §7, §8, §9

[15] = target: T14, proteins of U2OS cell lysate (Homo sapiens, UniProt O75396)
T14 construct: Proteins enriched by c-ponatinib from U2OS cell lysate; endogenous in cells; host or cells: U2OS cell lysate
Description: as §1, §2, §3, §4, §5, §6, §7, §8, §9

[16] = target: T15, proteins of U2OS cell lysate (Homo sapiens, UniProt P62805)
T15 construct: Proteins enriched by c-ponatinib from U2OS cell lysate; endogenous in cells; host or cells: U2OS cell lysate
Description: as §1, §2, §3, §4, §5, §6, §7, §8, §9

[17] = target: T16, proteins of U2OS cell lysate (Homo sapiens, UniProt P12814)
T16 construct: Proteins enriched by c-ponatinib from U2OS cell lysate; endogenous in cells; host or cells: U2OS cell lysate
Description: as §1, §2, §3, §4, §5, §6, §7, §8, §9

[18] = target: T17, proteins of U2OS cell lysate (Homo sapiens, UniProt O00159)
T17 construct: Proteins enriched by c-ponatinib from U2OS cell lysate; endogenous in cells; host or cells: U2OS cell lysate
Description: as §1, §2, §3, §4, §5, §6, §7, §8, §9

T3 sequence (Q9Y262 whole entry): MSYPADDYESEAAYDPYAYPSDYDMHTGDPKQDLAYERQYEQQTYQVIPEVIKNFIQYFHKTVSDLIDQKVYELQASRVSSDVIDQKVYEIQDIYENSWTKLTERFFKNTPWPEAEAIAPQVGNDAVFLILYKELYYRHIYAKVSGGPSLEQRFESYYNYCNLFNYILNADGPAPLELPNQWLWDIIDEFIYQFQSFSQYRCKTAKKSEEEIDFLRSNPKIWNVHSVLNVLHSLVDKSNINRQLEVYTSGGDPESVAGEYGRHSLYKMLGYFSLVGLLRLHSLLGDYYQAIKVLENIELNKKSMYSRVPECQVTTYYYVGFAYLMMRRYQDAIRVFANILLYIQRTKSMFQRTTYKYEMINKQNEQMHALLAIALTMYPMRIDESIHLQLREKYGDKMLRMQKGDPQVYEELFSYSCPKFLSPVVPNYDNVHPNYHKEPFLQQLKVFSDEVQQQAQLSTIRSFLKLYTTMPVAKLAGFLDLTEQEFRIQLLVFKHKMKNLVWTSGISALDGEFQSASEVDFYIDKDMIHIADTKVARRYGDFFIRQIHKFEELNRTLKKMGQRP
T5 sequence (O75533 whole entry): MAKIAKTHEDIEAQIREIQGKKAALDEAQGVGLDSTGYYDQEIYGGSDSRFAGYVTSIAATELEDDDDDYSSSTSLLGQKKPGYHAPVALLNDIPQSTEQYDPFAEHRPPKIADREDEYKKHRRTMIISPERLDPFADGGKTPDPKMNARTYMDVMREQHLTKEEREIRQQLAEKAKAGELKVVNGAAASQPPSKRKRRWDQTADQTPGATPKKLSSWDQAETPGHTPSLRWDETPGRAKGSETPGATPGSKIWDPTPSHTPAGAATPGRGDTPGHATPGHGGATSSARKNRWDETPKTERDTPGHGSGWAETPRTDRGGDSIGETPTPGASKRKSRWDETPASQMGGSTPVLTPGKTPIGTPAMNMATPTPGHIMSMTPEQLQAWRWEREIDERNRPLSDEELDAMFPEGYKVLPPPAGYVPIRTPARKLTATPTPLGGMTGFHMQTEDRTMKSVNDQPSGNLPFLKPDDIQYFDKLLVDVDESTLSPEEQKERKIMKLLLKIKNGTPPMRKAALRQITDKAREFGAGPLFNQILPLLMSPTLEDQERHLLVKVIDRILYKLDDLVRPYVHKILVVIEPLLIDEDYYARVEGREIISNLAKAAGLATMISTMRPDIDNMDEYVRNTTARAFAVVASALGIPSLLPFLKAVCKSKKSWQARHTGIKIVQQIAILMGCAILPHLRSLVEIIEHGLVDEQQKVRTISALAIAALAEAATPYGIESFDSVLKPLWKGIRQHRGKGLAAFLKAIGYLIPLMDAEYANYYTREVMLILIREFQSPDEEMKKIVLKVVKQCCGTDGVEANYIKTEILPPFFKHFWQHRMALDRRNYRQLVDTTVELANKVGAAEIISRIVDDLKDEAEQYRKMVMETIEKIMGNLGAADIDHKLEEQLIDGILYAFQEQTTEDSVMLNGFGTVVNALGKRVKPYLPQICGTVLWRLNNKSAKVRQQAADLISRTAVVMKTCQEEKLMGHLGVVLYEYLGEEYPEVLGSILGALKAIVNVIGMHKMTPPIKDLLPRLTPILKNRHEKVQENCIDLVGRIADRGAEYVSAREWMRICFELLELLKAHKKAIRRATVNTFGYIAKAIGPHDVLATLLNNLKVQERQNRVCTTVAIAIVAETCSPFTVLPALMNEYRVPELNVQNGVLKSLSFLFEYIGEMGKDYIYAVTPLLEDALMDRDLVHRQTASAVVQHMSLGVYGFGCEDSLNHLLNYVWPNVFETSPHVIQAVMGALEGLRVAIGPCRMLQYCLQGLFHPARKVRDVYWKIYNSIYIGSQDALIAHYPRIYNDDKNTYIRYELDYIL
T9 sequence (Q9UBM7 whole entry): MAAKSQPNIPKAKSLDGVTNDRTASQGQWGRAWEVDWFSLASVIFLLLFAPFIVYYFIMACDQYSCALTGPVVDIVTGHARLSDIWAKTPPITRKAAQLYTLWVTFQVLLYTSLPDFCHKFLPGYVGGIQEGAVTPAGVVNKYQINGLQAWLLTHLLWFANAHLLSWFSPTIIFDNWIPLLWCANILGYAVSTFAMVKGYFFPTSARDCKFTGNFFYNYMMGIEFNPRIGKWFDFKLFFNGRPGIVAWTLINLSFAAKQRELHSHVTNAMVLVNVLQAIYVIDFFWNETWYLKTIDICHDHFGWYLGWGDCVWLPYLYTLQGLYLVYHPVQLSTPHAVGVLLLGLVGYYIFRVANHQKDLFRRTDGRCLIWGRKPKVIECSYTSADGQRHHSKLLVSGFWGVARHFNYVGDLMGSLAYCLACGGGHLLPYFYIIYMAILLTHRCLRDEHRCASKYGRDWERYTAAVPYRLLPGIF
T4 sequence (Q13247 whole entry): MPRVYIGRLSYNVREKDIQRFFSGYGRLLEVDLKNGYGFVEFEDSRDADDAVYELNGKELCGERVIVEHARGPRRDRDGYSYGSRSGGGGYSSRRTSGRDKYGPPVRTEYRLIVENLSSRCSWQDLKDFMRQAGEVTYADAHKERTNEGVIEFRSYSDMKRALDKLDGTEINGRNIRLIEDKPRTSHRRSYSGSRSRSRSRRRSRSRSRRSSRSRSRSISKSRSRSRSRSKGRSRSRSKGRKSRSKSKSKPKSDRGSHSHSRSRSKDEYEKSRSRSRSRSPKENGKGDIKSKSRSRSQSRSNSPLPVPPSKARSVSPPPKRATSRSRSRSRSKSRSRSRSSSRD
T16 sequence (P12814 whole entry): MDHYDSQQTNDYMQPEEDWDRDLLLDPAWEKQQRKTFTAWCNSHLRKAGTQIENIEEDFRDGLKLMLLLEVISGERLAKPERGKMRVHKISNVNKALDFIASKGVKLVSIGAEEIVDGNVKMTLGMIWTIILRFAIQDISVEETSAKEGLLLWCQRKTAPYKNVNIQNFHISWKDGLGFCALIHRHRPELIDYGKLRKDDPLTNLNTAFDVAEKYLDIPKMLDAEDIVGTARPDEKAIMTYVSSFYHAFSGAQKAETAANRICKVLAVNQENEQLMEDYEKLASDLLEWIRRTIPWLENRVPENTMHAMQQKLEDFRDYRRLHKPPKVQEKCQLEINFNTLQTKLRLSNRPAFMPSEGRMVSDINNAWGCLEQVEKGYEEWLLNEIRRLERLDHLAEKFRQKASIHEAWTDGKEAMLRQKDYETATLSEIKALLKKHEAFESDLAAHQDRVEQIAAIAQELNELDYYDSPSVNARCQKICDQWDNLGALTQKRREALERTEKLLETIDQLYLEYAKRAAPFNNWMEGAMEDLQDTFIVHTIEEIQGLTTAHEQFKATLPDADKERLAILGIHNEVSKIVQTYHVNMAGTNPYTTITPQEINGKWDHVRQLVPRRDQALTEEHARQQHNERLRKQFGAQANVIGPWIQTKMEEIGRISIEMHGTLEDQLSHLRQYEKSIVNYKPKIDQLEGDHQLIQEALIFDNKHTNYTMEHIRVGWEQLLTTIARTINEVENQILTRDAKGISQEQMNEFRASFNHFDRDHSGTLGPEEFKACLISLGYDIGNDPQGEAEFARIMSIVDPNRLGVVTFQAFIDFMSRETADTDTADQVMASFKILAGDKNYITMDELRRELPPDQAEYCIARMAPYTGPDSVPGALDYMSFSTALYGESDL
T13 sequence (P19338 whole entry): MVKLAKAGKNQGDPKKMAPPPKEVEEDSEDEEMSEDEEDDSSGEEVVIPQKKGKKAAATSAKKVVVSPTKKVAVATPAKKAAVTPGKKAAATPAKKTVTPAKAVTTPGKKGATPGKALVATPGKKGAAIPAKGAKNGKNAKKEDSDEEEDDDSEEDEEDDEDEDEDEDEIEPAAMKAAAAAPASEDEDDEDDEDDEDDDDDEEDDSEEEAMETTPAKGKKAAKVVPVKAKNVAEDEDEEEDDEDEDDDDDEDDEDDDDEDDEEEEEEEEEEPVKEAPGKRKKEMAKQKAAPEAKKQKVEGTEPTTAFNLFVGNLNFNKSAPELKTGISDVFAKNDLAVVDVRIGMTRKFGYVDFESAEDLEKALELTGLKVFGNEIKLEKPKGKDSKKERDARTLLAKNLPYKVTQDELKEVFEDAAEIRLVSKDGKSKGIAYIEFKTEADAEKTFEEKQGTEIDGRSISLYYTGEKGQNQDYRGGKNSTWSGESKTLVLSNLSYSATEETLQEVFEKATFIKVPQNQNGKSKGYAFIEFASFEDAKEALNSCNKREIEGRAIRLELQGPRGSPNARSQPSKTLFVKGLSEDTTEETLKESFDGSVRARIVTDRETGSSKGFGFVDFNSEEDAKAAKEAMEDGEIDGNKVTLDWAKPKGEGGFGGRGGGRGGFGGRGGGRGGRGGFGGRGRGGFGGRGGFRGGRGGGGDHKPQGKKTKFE
T8 sequence (Q06830 whole entry): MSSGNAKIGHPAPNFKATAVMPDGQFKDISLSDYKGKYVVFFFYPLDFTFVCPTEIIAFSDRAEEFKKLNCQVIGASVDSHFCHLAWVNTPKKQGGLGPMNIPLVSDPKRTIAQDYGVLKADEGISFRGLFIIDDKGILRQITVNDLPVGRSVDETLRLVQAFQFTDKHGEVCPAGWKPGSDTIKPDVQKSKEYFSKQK
T7 sequence (P17987 whole entry): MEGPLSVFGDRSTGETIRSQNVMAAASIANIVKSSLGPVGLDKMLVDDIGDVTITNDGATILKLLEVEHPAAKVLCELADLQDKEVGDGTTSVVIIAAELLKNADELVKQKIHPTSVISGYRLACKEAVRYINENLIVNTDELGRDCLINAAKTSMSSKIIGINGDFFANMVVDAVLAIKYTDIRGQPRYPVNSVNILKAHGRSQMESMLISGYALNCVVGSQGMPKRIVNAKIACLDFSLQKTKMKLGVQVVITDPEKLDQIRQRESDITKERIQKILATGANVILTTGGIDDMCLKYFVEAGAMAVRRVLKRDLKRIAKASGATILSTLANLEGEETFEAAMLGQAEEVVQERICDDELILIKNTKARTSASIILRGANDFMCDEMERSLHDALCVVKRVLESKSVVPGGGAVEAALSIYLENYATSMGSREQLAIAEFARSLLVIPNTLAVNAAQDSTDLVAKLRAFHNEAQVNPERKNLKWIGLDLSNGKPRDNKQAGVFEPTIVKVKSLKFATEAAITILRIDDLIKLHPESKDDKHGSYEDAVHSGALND

In the case of `Cc1ccc(C(=O)Nc2ccc(CN3CCN(CCCN)CC3)c(C(F)(F)F)c2)cc1C#Cc1cnc2cccnn12` [c-ponatinib, reference compound], the “Average LFQ intensity” value ([1]; captured protein CAPZA1, Rank 200) is reported as 21.8548, the “Average LFQ intensity” value ([2]; captured protein SF3B3, Rank 141) is reported as 22.7469 and the “Average LFQ intensity” value ([3]; captured protein EIF3L, Rank 130) is reported as 22.8981. The “Average LFQ intensity” value ([4]; captured protein ACTR1A;ACTR1B, Rank 131) was 22.8935, the “Average LFQ intensity” value ([4]; captured protein ATP1A1;ATP1A3;ATP1A2, Rank 167) was 22.3247 and the “Average LFQ intensity” value ([4]; captured protein CDK1;CDK2, Rank 143) was 22.743. The “Average LFQ intensity” value ([4]; captured protein DYNLRB1;DYNLRB2, Rank 170) was 22.2764, the “Average LFQ intensity” value ([4]; captured protein GNB2;GNB4;GNB1, Rank 150) was 22.669 and the “Average LFQ intensity” value ([4]; captured protein H3F3B;H3F3A;HIST2H3A;HIST3H3;HIST1H3A;H3F3C;HIST2H3PS2, Rank 159) was 22.4876. For the same compound, the “Average LFQ intensity” value ([4]; captured protein HNRNPA1;HNRNPA1L2, Rank 216) was 21.6974, the “Average LFQ intensity” value ([4]; captured protein LUC7L2;LUC7L, Rank 142) was 22.7445 and the “Average LFQ intensity” value ([4]; captured protein MYL12A;MYL12B, Rank 201) was 21.8427. For the same compound, the “Average LFQ intensity” value ([4]; captured protein OGDH;OGDHL, Rank 189) was 22.0277, the “Average LFQ intensity” value ([4]; captured protein PSMA7;PSMA8, Rank 184) was 22.0977 and the “Average LFQ intensity” value ([4]; captured protein RAB11A;RAB11B, Rank 162) was 22.3634. The “Average LFQ intensity” value ([4]; captured protein RPS10;RPS10P5, Rank 217) was 21.6692, the “Average LFQ intensity” value ([4]; captured protein RPS26;RPS26P11, Rank 219) was 21.6239 and the “Average LFQ intensity” value ([4]; captured protein RPS27L;RPS27, Rank 208) was 21.7512. For the same compound, the “Average LFQ intensity” value ([4]; captured protein SNRPN;SNRPB, Rank 206) was 21.7664, the “Average LFQ intensity” value ([5]; captured protein SRSF6, Rank 196) was 21.8714 and the “Average LFQ intensity” value ([6]; captured protein SF3B1, Rank 165) was 22.352. The “Average LFQ intensity” value ([7]; captured protein RPS14, Rank 169) was 22.2776, the “Average LFQ intensity” value ([8]; captured protein TCP1, Rank 149) was 22.697 and the “Average LFQ intensity” value ([9]; captured protein PRDX1, Rank 177) was 22.2382. For the same compound, the “Average LFQ intensity” value ([10]; captured protein DHCR7, Rank 220) was 21.6093, the “Average LFQ intensity” value ([11]; captured protein GNB2L1, Rank 153) was 22.5999 and the “Average LFQ intensity” value ([12]; captured protein COX4I1, Rank 227) was 21.5292. For the same compound, the “Average LFQ intensity” value ([13]; captured protein PHGDH, Rank 119) was 23.086, the “Average LFQ intensity” value ([14]; captured protein NCL, Rank 117) was 23.1289 and the “Average LFQ intensity” value ([15]; captured protein SEC22B, Rank 146) was 22.7294. The “Average LFQ intensity” value ([16]; captured protein HIST1H4A, Rank 180) was 22.1811, the “Average LFQ intensity” value ([17]; captured protein ACTN1, Rank 166) was 22.3393 and the “Average LFQ intensity” value ([18]; captured protein MYO1C, Rank 209) was 21.7408.
`Cc1ccc(C(=O)Nc2ccc(CN3CCN(C)CC3)c(C(F)(F)F)c2)cc1C#Cc1cnc2cccnn12` [PON] was tested, and the “Average LFQ PON_WT” value ([1]; CAPZA1, F-actin-capping protein subunit alpha-1) was 21.8548, the “Average LFQ PON_WT” value ([2]; SF3B3, Splicing factor 3B subunit 3) was 22.7469 and the “Average LFQ PON_WT” value ([3]; EIF3L, Eukaryotic translation initiation factor 3 subunit L) was 22.8981. The “Average LFQ PON_WT” value ([4]; ACTG1;ACTB;ACTG2;ACTA1;ACTC1;ACTA2, Actin, cytoplasmic 2) was 29.1554, the “Average LFQ PON_WT” value ([4]; HIST1H1C;HIST1H1E;HIST1H1D;HIST1H1A, Histone H1.2) was 24.5034 and the “Average LFQ PON_WT” value ([5]; SRSF6, Serine/arginine-rich splicing factor 6) was 21.8714. For the same compound, the “Average LFQ PON_WT” value ([6]; SF3B1, Splicing factor 3B subunit 1) was 22.352, the “Average LFQ PON_WT” value ([7]; RPS14, 40S ribosomal protein S14) was 22.2776 and the “Average LFQ PON_WT” value ([8]; TCP1, T-complex protein 1 subunit alpha) was 22.697. The “Average LFQ PON_WT” value ([9]; PRDX1, Peroxiredoxin-1) was 22.2382, the “Average LFQ PON_WT” value ([10]; DHCR7, 7-dehydrocholesterol reductase) was 21.6093 and the “Average LFQ PON_WT” value ([11]; GNB2L1, Guanine nucleotide-binding protein subunit beta-2-like 1) was 22.5999. The “Average LFQ PON_WT” value ([12]; COX4I1, Cytochrome c oxidase subunit 4 isoform 1, mitochondrial) was 21.5292, the “Average LFQ PON_WT” value ([13]; PHGDH, D-3-phosphoglycerate dehydrogenase) was 23.086 and the “Average LFQ PON_WT” value ([14]; NCL, Nucleolin) was 23.1289. For the same compound, the “Average LFQ PON_WT” value ([15]; SEC22B, Vesicle-trafficking protein SEC22b) was 22.7294, the “Average LFQ PON_WT” value ([16]; HIST1H4A, Histone H4) was 22.1811 and the “Average LFQ PON_WT” value ([17]; ACTN1, Alpha-actinin-1) was 22.3393. The “Average LFQ PON_WT” value ([18]; MYO1C, Unconventional myosin-Ic) was 21.7408.
